This assay has as its target T1, mutated (E4Q, A5T) hMCHR1 receptor (Homo sapiens, UniProt Q99705, A5T/E4Q).
T1 construct: expressed in transfected cells; host or cells: HEK-293 (stably transfected), membranes
The assay is described as follows: Radioligand Binding Assay for Assessment of MCHR1 Activity. The conditions noted are these: membranes from stably transfected HEK-293 cells; competition with [Phe13,[125I]Tyr19]-MCH. Here is the method:
Radioligand Binding Assay for Assessment of MCHR1 Activity
Membranes from stably transfected HEK-293 cells expressing a mutated (E4Q, A5T) hMCHR1 receptor were prepared by dounce homogenization and differential centrifugation. Binding experiments were carried out with 0.5-1.0 ug of membrane protein incubated in a total of 0.2 ml in 25 mM HEPES (pH 7.4) with 10 mM MgCl2, 2 mM EGTA, and 0.1% BSA (Binding Buffer) for 90 min. For competition binding assays, reactions were carried out in the presence of with 0.06-0.1 nM [Phe^13, [^125I]Tyr^19]-MCH and increasing concentrations of unlabeled test molecules. Reactions were terminated by rapid vacuum filtration over 96 well-GFC UNIFILTER® plates pre-coated with 0.075 ml binding buffer containing 1% BSA, and washed 3 times with 0.4 ml of Phospho-buffered Saline (pH 7.4) containing 0.01% TX-100. Filters were dried, 0.05 ml microscint 20 was added to each well and radioactivity was subsequently quantified by scintillation counting on a TOPCOUNT® microplate scintillation counter (Packard). Inhibitory constants were determined by nonlinear least squares analysis using a four parameter logistic equation.

Ki data for 29 compounds are collected here from US8415386B2, “Azolopyrrolone melanin concentrating hormone receptor-1 antagonists” (Bristol-Myers Squibb Company, priority 2008, dated 2013).

By Ki is commonly meant the equilibrium dissociation constant of an inhibitor or competing ligand from its target. A high value points to lower affinity.

Where a name gives a salt, the structure may show the parent alone.

T1 sequence (Q99705 whole entry E4Q/A5T): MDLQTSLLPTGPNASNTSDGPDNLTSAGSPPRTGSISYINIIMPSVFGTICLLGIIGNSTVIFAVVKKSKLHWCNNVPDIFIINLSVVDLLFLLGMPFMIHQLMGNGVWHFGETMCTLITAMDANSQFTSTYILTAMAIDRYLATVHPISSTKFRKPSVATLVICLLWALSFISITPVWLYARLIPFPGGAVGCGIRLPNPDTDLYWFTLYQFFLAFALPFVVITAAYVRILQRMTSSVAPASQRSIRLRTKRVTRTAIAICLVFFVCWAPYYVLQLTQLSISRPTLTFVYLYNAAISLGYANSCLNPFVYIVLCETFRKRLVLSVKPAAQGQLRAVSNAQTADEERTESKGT

`CN[C@H]1CCN(c2ccc(N3Cc4cn(-c5ccc(Cl)cc5)nc4C3=O)cc2OC)C1` [Example 42, (S)-2-(4-Chlorophenyl)-5-(3-methoxy-4-(3-(methylamino)pyrrolidin-1-yl)phenyl)-4,5-dihydropyrrolo[3,4-c]pyrazol-6(2H)-one, 2 TFA]: affinity was put at a Ki of 0.5 nM. To `CN(C(=O)OC(C)(C)C)[C@@H]1CCN(c2ccc(N3Cc4cn(-c5ccc(Cl)cc5)nc4C3=O)cn2)C1` [Example 19A, (R)-tort-Butyl 1-(5-(2-(4-chlorophenyl)-6-oxopyrrolo[3,4-c]pyrazol-5(2H,4H,6H)-yl)pyridin-2-yl)pyrrolidin-3-yl(methyl)carbamate] belongs 184 nM.

Compound `O=C1c2nn(-c3ccc(Cl)cc3)cc2CN1c1ccc(N2CC[C@@H](O)C2)nc1` [Example 11, (R)-2-(4-Chlorophenyl)-5-(6-(3-hydroxypyrrolidin-1-yl)pyridin-3-yl)-4,5-dihydropyrrolo[3,4-c]pyrazol-6(2H)-one] gave a Ki of 81 nM. To `CNC1CCN(c2ccc(N3Cc4cn(-c5ccc(Cl)cc5)nc4C3=O)cn2)C1` (centres unmarked) [Example 16, 2-(4-Chlorophenyl)-5-(6-(3-(methylamino)pyrrolidin-1-yl)pyridin-3-yl)-4,5-dihydropyrrolo[3,4-c]pyrazol-6(2H)-one, 2 TFA] belongs 2.5 nM. To `O=C1c2nn(-c3ccc(Cl)cc3)cc2CN1c1ccc(N2CCC(N3CCCC3)C2)nc1` (centres unmarked) [Example 28, 5-(6-(1,3′-Bipyrrolidin-1′-yl)pyridin-3-yl)-2-(4-chlorophenyl)-4,5-dihydropyrrolo[3,4-c]pyrazol-6(2H)-one] belongs 0.9 nM; to `COc1cc(N2Cc3nn(-c4ccc(Cl)cc4)nc3C2=O)ccc1OCC(=O)C1CC1` [Example 14B, 2-(4-Chlorophenyl)-5-(4-(2-cyclopropyl-2-oxoethoxy)-3-methoxyphenyl)-5,6-dihydropyrrolo[3,4-d][1,2,3]triazol-4(2H)-one], 304 nM. For `CN(C(=O)OC(C)(C)C)[C@H]1CCN(c2ccc(N3Cc4cn(-c5ccc(Cl)cc5)nc4C3=O)cn2)C1` [Example 20A, (S)-tert-Butyl 1-(5-(2-(4-chlorophenyl)-6-oxopyrrolo[3,4-c]pyrazol-5(2H,4H,6H)-yl)pyridin-2-yl)pyrrolidin-3-yl(methyl)carbamate], the inhibition constant Ki was 784 nM. This Ki is about 2.6-fold higher than that of the compound before. Compound `COc1cc(N2Cc3cn(-c4ccc(Cl)cc4)nc3C2=O)ccc1OCCN1CCCC1` [Example 15, 2-(4-Chlorophenyl)-5-(3-methoxy-4-(2-(pyrrolidin-1-yl)ethoxy)phenyl)-4,5-dihydropyrrolo[3,4-c]pyrazol-6(2H)-one, TFA] displayed an inhibition constant Ki of 0.7 nM. This Ki lies about 1100-fold lower than the previous one. To `COc1cc(N2Cc3nn(-c4ccc(Cl)cc4)cc3C2=O)ccc1OC[C@H](O)C1CC1` [Example 1, (R)-2-(4-Chlorophenyl)-5-(4-(2-cyclopropyl-2-hydroxyethoxy)-3-methoxyphenyl)-5,6-dihydropyrrolo[3,4-c]pyrazol-4(2H)-one] belongs 41.4 nM; to `COc1cc(N2Cc3cn(-c4ccc(Cl)cc4)nc3C2=O)ccc1OCC(C)(C)O` [Example 8, 2-(4-Chlorophenyl)-5-(4-(2-hydroxy-2-methylpropoxy)-3-methoxyphenyl)-4,5-dihydropyrrolo[3,4-c]pyrazol-6(2H)-one], 12.5 nM; to `CN(C(=O)OC(C)(C)C)C1CCN(c2ccc(N3Cc4cn(-c5ccc(Cl)cc5)nc4C3=O)cn2)C1` (centres unmarked) [Example 16G, tert-Butyl 1-(5-(2-(4-chlorophenyl)-6-oxopyrrolo[3,4-e]pyrazol-5(2H,4H,6H)-yl)pyridin-2-yl)pyrrolidin-3-yl(methyl)carbamate], 3.6 nM. Compound `COc1cc(N2Cc3cn(-c4ccc(Cl)cc4)nc3C2=O)ccc1OC[C@H](OC(=O)[C@@H](N)C(C)C)C1CC1` [Example 10, (S)-((R)-2-(4-(2-(4-Chlorophenyl)-6-oxopyrrolo[3,4-c]pyrazol-5(2H,4H,6H)-yl)-2-methoxyphenoxy)-1-cyclopropylethyl) 2-amino-3-methylbutanoate, TFA salt] showed a Ki of 2.7 nM. This Ki and that of the compound before are within 1.5-fold of each other. To `COc1cc(N2Cc3nn(-c4ccc(Cl)cc4)nc3C2=O)ccc1OCC(C)(C)O` [Example 13, 2-(4-Chlorophenyl)-5-(4-(2-hydroxy-2-methylpropoxy)-3-methoxyphenyl)-5,6-dihydropyrrolo[3,4-d][1,2,3]triazol-4(2H)-one] belongs 34.3 nM; to `COc1cc(N2Cc3nn(-c4ccc(Cl)cc4)nc3C2=O)ccc1OCCN1CCCC1` [Example 12, 2-(4-Chlorophenyl)-5-(3-methoxy-4-(2-(pyrrolidin-1-yl)ethoxy)phenyl)-5,6-dihydropyrrolo[3,4-d][1,2,3]triazol-4(2H)-one], 2.3 nM; to `COc1cc(N2Cc3cn(-c4ccc(Cl)cc4)nc3C2=O)ccc1OCC(C)O` (centres unmarked) [Example 6, 2-(4-Chlorophenyl)-5-(4-(2-hydroxypropoxy)-3-methoxyphenyl)-4,5-dihydropyrrolo[3,4-c]pyrazol-6(2H)-one], 13.2 nM. Regarding `CN[C@@H]1CCN(c2ccc(N3Cc4cn(-c5ccc(Cl)cc5)nc4C3=O)cn2)C1` [Example 19, (R)-2-(4-Chlorophenyl)-5-(6-(3-(methylamino)pyrrolidin-1-yl)pyridin-3-yl)-4,5-dihydropyrrolo[3,4-c]pyrazol-6(2H)-one, 2 HCl], affinity was put at a Ki of 1.3 nM. Compound `COc1cc(N2Cc3nn(-c4ccc(Cl)cc4)cc3C2=O)ccc1OCC(C)O` (centres unmarked) [Example 2, 2-(4-Chlorophenyl)-5-(4-(2-hydroxypropoxy)-3-methoxyphenyl)-5,6-dihydropyrrolo[3,4-c]pyrazol-4(2H)-one] registered an inhibition constant (Ki) of 334 nM.

In the case of `COc1cc(N2Cc3cn(-c4ccc(Cl)cc4)nc3C2=O)ccc1OCC(C)OS(C)(=O)=O` (centres unmarked) [Example 5, 1-(4-(2-(4-Chlorophenyl)-6-oxopyrrolo[3,4-c]pyrazol-5(2H,4H,6H)-yl)-2-methoxyphenoxy)propan-2-yl methanesulfonate], the affinity corresponds to a Ki of 13.7 nM. To `CN(C)[C@H]1CCN(c2ccc(N3Cc4cn(-c5ccc(Cl)cc5)nc4C3=O)cn2)C1` [Example 17, (S)-2-(4-Chlorophenyl)-5-(6-(3-(dimethylamino)pyrrolidin-1-yl)pyridin-3-yl)-4,5-dihydropyrrolo[3,4-c]pyrazol-6(2H)-one, 2 HCl] belongs 0.9 nM; to `COc1ccc(N2Cc3cn(-c4ccc(Cl)cc4)nc3C2=O)cc1OC` [Example 7, 2-(4-Chlorophenyl)-5-(3,4-dimethoxyphenyl)-4,5-dihydropyrrolo[3,4-c]pyrazol-6(2H)-one], 49.4 nM. Consider `COc1cc(N2Cc3nn(-c4ccc(Cl)cc4)nc3C2=O)ccc1OCC(O)C1CC1` (centres unmarked) [Example 14, 2-(4-Chlorophenyl)-5-(4-(2-cyclopropyl-2-hydroxyethoxy)-3-methoxyphenyl)-5,6-dihydropyrrolo[3,4-d][1,2,3]triazol-4(2H)-one], for which the Ki was found to be 113 nM.

Take `CN[C@H]1CCN(c2ccc(N3Cc4cn(-c5ccc(Cl)cc5)nc4C3=O)cn2)C1` [Example 20, (S)-2-(4-Chlorophenyl)-5-(6-(3-(methylamino)pyrrolidin-1-yl)pyridin-3-yl)-4,5-dihydropyrrolo[3,4-c]pyrazol-6(2H)-one, 2 HCl]: the Ki was 0.9 nM.

For `O=C1c2nn(-c3ccc(Cl)cc3)cc2CN1c1ccc(N2CCC(N3CCCC3)CC2)nc1` [Example 29, 2-(4-Chlorophenyl)-5-(6-(4-(pyrrolidin-1-yl)piperidin-1-yl)pyridin-3-yl)-4,5-dihydropyrrolo[3,4-c]pyrazol-6(2H)-one], the inhibition constant Ki was determined as 17.1 nM. With `CN(C)[C@@H]1CCN(c2ccc(N3Cc4cn(-c5ccc(Cl)cc5)nc4C3=O)cn2)C1` [Example 18, HCl], the inhibition constant (Ki) amounted to 0.7 nM. To `COc1cc(N2Cc3nn(-c4ccc(Cl)cc4)cc3C2=O)ccc1OCC(C)OS(C)(=O)=O` (centres unmarked) [Example 4, 1-(4-(2-(4-Chlorophenyl)-4-oxopyrrolo[3,4-c]pyrazol-5(2H,4H,6H)-yl)-2-methoxyphenoxy)propan-2-yl methanesulfonate] belongs 41.1 nM; to `CC(C)(C)NC1CCN(c2ccc(N3Cc4cn(-c5ccc(Cl)cc5)nc4C3=O)cn2)C1` (centres unmarked) [Example 24, 5-(6-(3-(tert-Butylamino)pyrrolidin-1-yl)pyridin-3-yl)-2-(4-chlorophenyl)-4,5-dihydropyrrolo[3,4-c]pyrazol-6(2H)-one], 2.7 nM; to `COc1cc(N2Cc3cn(-c4ccc(Cl)cc4)nc3C2=O)ccc1OC[C@H](O)C1CC1` [Example 9, (R)-2-(4-Chlorophenyl)-5-(4-(2-cyclopropyl-2-hydroxyethoxy)-3-methoxyphenyl)-4,5-dihydropyrrolo[3,4-c]pyrazol-6(2H)-one], 8.6 nM. `CN[C@H]1CCN(c2ncc(N3Cc4cn(-c5ccc(Cl)cc5)nc4C3=O)cn2)C1` [Example 47, (S)-2-(4-Chlorophenyl)-5-(2-(3-(methylamino)pyrrolidin-1-yl)pyrimidin-5-yl)-4,5-dihydropyrrolo[3,4-c]pyrazol-6(2H)-one] gave a Ki of 32.7 nM.

For the compound `COc1cc(N2Cc3nn(-c4ccc(Cl)cc4)cc3C2=O)ccc1OCC(C)(C)O` [Example 3, 2-(4-Chlorophenyl)-5-(4-(2-hydroxy-2-methylpropoxy)-3-methoxyphenyl)-5,6-dihydropyrrolo[3,4-c]pyrazol-4(2H)-one], the Ki is 106 nM. Compared with the last compound, the Ki is about 3.2-fold higher.
